Experimental data taken from US20060166894A1, “Ace-inhibitors having antioxidant and no-donor activity” (Yissum Research Development Company of the Hebrew …, priority 2002, published 2006).

Target: T1, recombinant human somatic ACE (Homo sapiens, UniProt P12821)
T1 construct: purchased R&D Systems
Assay: ACE activity, cleavage of fluorogenic peptide substrate
Format: biochemical
Settings: fluorogenic substrate 10 μM, 50 mM sodium borate buffer pH 8.2, 37° C.
From the text: Angiotensin converting enzyme (ACE) is a dipeptidyl carboxypeptidase that releases the C-terminal dipeptide His-Leu from decapeptide angiotensin I, converting it to the vasoconstrictor angiotensin II (Ang II). The assay for ACE activity will measure the cleavage of a fluorogenic peptide substrate, (7-methoxycoumarin-4-yl)acetyl-Arg-Pro-Pro-Gly-Phe-Ser-Ala-Phe-Lys(2,4 dinitrophenyl; R&D Systems). This peptide substrate contains a fluorescent 7-methoxycoumarin group that is internally quenched by resonance energy transfer to the 2,4-dinitrophenyl group. ACE cleaves the peptide between the Ala-Phe (between the fluorescent group and the quencher group), resulting in an increase in fluorescence. The assay is carried out in a 96-well plate. […] Fluorescence changes (relative fluorescence units/min, RFU/min) are measured using a fmax fluorescence microplate reader (Molecular Devices with SoftmaxPro software) at 37° C. with excitation and emission wavelengths of 320 nm and 405 nm, respectively. A background rate determined for samples containing no ACE is subtracted from all reactions to calculate the initial rates in RFU/min. […]
The ACE activity of the compound N-{2-([1,2]dithiolan-3-yl)-propionyl}-pyrrolidine-2-carboxylic acid was measured as described above.

T1 sequence (P12821 30-1306): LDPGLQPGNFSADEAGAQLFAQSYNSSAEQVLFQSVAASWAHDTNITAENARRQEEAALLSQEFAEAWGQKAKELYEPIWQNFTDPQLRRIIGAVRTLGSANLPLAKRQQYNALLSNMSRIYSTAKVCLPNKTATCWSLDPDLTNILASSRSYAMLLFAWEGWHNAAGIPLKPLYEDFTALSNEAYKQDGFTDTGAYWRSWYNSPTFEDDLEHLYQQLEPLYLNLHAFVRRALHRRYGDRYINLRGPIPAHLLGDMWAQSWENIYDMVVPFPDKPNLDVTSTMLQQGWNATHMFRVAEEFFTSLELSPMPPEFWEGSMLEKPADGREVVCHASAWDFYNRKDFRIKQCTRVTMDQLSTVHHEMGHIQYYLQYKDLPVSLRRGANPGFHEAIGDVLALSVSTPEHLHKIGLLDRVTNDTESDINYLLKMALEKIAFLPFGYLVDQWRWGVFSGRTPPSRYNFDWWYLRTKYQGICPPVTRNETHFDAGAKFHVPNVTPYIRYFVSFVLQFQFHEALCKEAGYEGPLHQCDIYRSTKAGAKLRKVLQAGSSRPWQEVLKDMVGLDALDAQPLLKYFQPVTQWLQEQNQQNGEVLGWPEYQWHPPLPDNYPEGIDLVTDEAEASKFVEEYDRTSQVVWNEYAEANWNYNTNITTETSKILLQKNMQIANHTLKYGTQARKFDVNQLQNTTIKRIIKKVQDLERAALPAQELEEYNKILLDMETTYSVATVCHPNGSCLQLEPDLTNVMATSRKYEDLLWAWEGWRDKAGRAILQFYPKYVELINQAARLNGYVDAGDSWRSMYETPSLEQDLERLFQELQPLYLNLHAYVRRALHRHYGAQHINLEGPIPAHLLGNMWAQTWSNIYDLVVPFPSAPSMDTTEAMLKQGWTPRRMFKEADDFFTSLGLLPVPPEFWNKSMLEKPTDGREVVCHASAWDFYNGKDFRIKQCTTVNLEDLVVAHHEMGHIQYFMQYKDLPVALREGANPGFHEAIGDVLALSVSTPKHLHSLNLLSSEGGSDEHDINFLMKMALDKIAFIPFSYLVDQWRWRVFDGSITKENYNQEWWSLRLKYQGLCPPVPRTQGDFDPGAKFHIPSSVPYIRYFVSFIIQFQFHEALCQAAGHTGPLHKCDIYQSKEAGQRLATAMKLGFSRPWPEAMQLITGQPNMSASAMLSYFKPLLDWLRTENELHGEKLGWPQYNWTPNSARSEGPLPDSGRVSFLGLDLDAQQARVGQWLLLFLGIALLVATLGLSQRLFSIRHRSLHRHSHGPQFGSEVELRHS

Work on `CC(C(=O)N1CCCC1C(=O)O)C1CCSS1` (stereo not shown) [N-{2-([1,2]Dithiolan-3-yl)-propionyl}-pyrrolidine-2-carboxylic acid] yielded an IC50 of 64 µM.
